Reference: the kinase profiling compilation of Christmann-Franck et al. (2016)

Assays:
Assay in all cases: KINOMEscan competition binding
Conditions in all cases: compound 10.0 µM
STK38L (human) = STK38L (human) (UniProt Q9Y2H1)
WEE1 (human) = WEE1 (human) (UniProt P30291)
IRAK1 (human) = IRAK1 (human) (UniProt P51617)
EPHA3 (human) = EPHA3 (human) (UniProt P29320)
CLK2 (human) = CLK2 (human) (UniProt P49760)
FER (human) = FER (human) (UniProt P16591)
MAPK15 (human) = MAPK15 (human) (UniProt Q8TD08)
RPS6KA6 KD1 (human) = RPS6KA6 KD1 (human) (UniProt Q9UK32)
PRKAA2 (human) = PRKAA2 (human) (UniProt P54646)
FLT3 (human) = FLT3 (human) (UniProt P36888)
STK32B (human) = STK32B (human) (UniProt Q9NY57)
INSRR (human) = INSRR (human) (UniProt P14616)
MAP3K3 (human) = MAP3K3 (human) (UniProt Q99759)
CDK4 CCND1 (human) = CDK4 CCND1 (human) (UniProt P11802+P24385)
TNK1 (human) = TNK1 (human) (UniProt Q13470)
EPHA2 (human) = EPHA2 (human) (UniProt P29317)
PHKG1 (human) = PHKG1 (human) (UniProt Q16816)
CDKL2 (human) = CDKL2 (human) (UniProt Q92772)
MAP2K1 (human) = MAP2K1 (human) (UniProt Q02750)
IKBKE (human) = IKBKE (human) (UniProt Q14164)
CSNK1A1L (human) = CSNK1A1L (human) (UniProt Q8N752)
ERBB3 (human) = ERBB3 (human) (UniProt P21860)
ACVR2B (human) = ACVR2B (human) (UniProt Q13705)
EPHB6 (human) = EPHB6 (human) (UniProt O15197)
NUAK1 (human) = NUAK1 (human) (UniProt O60285)
ALK (human) = ALK (human) (UniProt Q9UM73)
PRKG1 (human) = PRKG1 (human) (UniProt Q13976)
MAPK4 (human) = MAPK4 (human) (UniProt P31152)
TEK (human) = TEK (human) (UniProt Q02763)
ROS1 (human) = ROS1 (human) (UniProt P08922)
MAP3K4 (human) = MAP3K4 (human) (UniProt Q9Y6R4)
PIP5K1C (human) = PIP5K1C (human) (UniProt O60331)
CLK4 (human) = CLK4 (human) (UniProt Q9HAZ1)
DAPK2 (human) = DAPK2 (human) (UniProt Q9UIK4)
TLK1 (human) = TLK1 (human) (UniProt Q9UKI8)
MAPK13 (human) = MAPK13 (human) (UniProt O15264)
PKN1 (human) = PKN1 (human) (UniProt Q16512)
DCLK3 (human) = DCLK3 (human) (UniProt Q9C098)
PRKG2 (human) = PRKG2 (human) (UniProt Q13237)
PRKACB (human) = PRKACB (human) (UniProt P22694)

DCLK3 (human), sequence (Q9C098 whole entry, looked up): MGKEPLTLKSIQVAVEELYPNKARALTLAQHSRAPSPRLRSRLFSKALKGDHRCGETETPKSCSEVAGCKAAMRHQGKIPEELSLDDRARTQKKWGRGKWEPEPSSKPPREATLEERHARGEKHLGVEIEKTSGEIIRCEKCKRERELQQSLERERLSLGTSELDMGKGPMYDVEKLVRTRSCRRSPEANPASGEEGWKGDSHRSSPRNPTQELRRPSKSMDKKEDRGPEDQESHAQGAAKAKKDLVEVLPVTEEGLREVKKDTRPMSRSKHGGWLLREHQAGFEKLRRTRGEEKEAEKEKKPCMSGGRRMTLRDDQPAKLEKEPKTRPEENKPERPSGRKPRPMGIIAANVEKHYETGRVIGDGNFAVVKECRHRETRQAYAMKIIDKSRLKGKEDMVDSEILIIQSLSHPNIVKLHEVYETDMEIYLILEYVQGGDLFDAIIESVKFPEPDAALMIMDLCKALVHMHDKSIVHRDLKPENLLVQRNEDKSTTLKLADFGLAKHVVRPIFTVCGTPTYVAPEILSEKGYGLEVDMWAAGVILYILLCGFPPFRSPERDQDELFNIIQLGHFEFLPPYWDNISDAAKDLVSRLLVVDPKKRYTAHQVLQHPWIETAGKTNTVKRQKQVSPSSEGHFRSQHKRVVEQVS
NUAK1 (human), sequence (O60285 whole entry, looked up): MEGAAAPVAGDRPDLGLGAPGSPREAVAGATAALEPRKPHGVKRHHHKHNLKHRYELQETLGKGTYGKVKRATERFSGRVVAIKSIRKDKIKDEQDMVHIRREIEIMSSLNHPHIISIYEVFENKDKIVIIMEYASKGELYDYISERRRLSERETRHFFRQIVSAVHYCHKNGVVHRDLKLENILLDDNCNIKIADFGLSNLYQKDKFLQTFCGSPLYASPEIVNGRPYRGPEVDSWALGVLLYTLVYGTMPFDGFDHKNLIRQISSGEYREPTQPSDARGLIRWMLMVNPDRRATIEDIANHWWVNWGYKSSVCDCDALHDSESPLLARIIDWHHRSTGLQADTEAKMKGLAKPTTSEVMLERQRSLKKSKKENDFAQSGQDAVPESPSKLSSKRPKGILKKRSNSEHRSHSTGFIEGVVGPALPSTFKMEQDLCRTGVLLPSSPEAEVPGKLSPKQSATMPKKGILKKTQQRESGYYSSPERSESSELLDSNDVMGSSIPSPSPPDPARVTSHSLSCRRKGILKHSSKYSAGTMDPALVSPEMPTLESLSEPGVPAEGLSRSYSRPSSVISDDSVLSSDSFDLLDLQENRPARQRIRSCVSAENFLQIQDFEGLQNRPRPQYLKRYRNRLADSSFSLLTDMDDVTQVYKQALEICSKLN
STK38L (human), sequence (Q9Y2H1 whole entry, looked up): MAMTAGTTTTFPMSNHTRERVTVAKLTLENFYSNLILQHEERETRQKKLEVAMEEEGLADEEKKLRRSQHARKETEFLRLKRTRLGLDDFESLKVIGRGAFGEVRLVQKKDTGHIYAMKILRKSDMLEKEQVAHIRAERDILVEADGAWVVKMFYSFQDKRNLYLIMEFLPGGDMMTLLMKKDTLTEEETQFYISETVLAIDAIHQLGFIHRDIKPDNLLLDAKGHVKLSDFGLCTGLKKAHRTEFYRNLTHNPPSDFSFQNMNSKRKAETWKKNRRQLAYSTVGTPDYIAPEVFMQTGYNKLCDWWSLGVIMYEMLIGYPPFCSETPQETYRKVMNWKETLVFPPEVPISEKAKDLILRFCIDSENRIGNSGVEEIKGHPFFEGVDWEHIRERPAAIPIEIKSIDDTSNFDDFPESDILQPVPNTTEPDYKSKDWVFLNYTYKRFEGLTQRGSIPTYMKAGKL
CSNK1A1L (human), sequence (Q8N752 whole entry, looked up): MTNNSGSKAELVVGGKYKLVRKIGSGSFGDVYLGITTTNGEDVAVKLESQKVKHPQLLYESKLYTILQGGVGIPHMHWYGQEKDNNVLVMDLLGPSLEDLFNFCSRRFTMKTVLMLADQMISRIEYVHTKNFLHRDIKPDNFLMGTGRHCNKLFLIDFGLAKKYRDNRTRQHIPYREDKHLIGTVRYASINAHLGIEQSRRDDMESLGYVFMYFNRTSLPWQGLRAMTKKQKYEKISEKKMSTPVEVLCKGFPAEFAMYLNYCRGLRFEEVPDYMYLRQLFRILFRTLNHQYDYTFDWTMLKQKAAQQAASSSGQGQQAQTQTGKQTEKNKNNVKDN
MAPK4 (human), sequence (P31152 whole entry, looked up): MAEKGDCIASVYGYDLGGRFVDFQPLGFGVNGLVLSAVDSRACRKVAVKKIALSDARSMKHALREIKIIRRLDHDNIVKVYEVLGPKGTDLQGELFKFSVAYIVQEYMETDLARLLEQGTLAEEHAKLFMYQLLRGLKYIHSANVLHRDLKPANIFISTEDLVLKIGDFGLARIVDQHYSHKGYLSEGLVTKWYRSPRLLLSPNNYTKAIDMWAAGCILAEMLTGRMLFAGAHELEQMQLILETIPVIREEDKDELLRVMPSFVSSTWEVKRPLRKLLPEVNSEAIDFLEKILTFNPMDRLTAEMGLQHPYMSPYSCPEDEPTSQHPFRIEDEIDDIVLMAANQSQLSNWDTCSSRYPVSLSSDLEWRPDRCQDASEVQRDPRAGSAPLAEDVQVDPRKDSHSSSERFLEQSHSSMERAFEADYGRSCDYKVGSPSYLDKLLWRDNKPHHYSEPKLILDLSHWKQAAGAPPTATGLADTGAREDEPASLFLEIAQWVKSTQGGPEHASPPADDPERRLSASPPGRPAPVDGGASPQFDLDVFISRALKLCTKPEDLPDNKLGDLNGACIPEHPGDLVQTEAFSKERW
ERBB3 (human), sequence (P21860 whole entry, looked up): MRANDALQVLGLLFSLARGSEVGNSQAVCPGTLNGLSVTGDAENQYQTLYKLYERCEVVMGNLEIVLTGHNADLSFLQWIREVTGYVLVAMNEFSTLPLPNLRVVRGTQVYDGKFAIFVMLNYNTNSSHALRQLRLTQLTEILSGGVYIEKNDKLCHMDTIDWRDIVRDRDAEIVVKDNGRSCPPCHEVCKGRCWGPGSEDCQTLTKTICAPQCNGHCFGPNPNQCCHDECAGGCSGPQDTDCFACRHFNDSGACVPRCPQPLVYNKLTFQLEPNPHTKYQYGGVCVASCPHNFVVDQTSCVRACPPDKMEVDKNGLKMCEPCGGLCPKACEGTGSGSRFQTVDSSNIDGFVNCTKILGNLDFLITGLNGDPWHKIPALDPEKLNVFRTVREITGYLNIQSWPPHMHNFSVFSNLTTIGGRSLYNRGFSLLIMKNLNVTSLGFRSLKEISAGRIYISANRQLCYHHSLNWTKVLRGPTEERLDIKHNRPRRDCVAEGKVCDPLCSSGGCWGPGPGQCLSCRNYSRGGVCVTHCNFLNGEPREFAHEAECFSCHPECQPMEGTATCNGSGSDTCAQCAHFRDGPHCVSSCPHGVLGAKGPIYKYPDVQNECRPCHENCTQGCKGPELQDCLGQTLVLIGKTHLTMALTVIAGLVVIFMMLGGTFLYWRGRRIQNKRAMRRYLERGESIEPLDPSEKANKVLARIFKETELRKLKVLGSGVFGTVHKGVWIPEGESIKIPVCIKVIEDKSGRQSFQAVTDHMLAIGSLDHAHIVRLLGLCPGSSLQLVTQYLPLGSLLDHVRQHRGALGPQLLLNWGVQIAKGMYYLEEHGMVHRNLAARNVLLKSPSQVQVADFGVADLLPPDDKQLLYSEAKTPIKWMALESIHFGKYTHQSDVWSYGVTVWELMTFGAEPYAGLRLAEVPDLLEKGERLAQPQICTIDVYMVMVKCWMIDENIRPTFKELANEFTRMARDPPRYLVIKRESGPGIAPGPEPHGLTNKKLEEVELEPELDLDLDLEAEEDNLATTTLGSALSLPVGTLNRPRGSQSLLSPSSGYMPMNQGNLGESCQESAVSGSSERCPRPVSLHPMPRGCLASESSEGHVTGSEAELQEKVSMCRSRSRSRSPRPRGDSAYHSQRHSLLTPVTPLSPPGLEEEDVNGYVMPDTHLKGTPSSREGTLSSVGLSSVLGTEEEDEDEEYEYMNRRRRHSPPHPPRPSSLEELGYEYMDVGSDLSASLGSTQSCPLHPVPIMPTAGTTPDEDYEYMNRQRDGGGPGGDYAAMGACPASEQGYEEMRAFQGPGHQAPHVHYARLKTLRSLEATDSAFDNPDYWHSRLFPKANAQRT
PIP5K1C (human), sequence (O60331 whole entry, looked up): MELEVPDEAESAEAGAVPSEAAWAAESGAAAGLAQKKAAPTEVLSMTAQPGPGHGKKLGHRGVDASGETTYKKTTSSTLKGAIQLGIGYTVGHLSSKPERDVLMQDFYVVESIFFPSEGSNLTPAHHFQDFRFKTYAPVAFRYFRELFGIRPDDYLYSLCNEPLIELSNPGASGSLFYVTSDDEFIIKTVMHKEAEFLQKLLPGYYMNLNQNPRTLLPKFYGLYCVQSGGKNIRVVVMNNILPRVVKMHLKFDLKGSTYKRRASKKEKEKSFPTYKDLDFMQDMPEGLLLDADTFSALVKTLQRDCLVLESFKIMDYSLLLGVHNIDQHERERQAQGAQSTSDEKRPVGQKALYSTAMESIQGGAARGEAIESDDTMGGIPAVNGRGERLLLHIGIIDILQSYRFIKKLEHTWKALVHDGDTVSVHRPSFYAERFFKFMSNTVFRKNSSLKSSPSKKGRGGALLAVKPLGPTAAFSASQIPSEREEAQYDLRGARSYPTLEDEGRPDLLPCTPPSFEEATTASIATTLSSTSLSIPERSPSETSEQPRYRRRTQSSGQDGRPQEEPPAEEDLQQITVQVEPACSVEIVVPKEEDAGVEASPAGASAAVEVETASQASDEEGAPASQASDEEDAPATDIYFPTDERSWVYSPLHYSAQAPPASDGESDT

| Compound | kinase still bound, per cent of control (STK38L (human)) [%] | kinase still bound, per cent of control (WEE1 (human)) [%] | kinase still bound, per cent of control (IRAK1 (human)) [%] | kinase still bound, per cent of control (EPHA3 (human)) [%] | kinase still bound, per cent of control (CLK2 (human)) [%] | kinase still bound, per cent of control (FER (human)) [%] | kinase still bound, per cent of control (MAPK15 (human)) [%] | kinase still bound, per cent of control (RPS6KA6 KD1 (human)) [%] | kinase still bound, per cent of control (PRKAA2 (human)) [%] | kinase still bound, per cent of control (FLT3 (human)) [%] | kinase still bound, per cent of control (STK32B (human)) [%] | kinase still bound, per cent of control (INSRR (human)) [%] | kinase still bound, per cent of control (MAP3K3 (human)) [%] | kinase still bound, per cent of control (CDK4 CCND1 (human)) [%] | kinase still bound, per cent of control (TNK1 (human)) [%] | kinase still bound, per cent of control (EPHA2 (human)) [%] | kinase still bound, per cent of control (PHKG1 (human)) [%] | kinase still bound, per cent of control (CDKL2 (human)) [%] | kinase still bound, per cent of control (MAP2K1 (human)) [%] | kinase still bound, per cent of control (IKBKE (human)) [%] | other results |
| --- | --- | --- | --- | --- | --- | --- | --- | --- | --- | --- | --- | --- | --- | --- | --- | --- | --- | --- | --- | --- | --- |
| CC1=C(C(=O)Nc2cc3cn[nH]c3cc2F)C(c2ccc(C(F)(F)F)cc2)CC(=O)N1 (stereo not given) | 12 | 94 | 90 | 88 | 54 | 100 | 80 | 42 | 25 | 100 | 52 | 99 | 82 | 71 | 33 | 84 | 100 | 94 | 73 | 77 | kinase still bound, per cent of control (CSNK1A1L (human)): 98%; kinase still bound, per cent of control (ERBB3 (human)): 92%; kinase still bound, per cent of control (ACVR2B (human)): 96%; kinase still bound, per cent of control (EPHB6 (human)): 68%; kinase still bound, per cent of control (NUAK1 (human)): 28%; kinase still bound, per cent of control (ALK (human)): 77%; kinase still bound, per cent of control (PRKG1 (human)): 15%; kinase still bound, per cent of control (MAPK4 (human)): 100%; kinase still bound, per cent of control (TEK (human)): 83%; kinase still bound, per cent of control (ROS1 (human)): 100%; kinase still bound, per cent of control (MAP3K4 (human)): 97%; kinase still bound, per cent of control (PIP5K1C (human)): 92%; kinase still bound, per cent of control (CLK4 (human)): 100%; kinase still bound, per cent of control (DAPK2 (human)): 92%; kinase still bound, per cent of control (TLK1 (human)): 90%; kinase still bound, per cent of control (MAPK13 (human)): 98%; kinase still bound, per cent of control (PKN1 (human)): 19%; kinase still bound, per cent of control (DCLK3 (human)): 70%; kinase still bound, per cent of control (PRKG2 (human)): 29% |
| CCc1nc(-c2cccc(C)c2)c(-c2ccnc(NC(=O)c3ccccc3)c2)s1 | 96 | 100 | 99 | 69 | 61 | 60 | 100 | 94 | 100 | 17 | 7 | 100 | 92 | 84 | 88 | 66 | 100 | 80 | 86 | 100 | kinase still bound, per cent of control (PRKACB (human)): 95%; kinase still bound, per cent of control (CSNK1A1L (human)): 1.3%; kinase still bound, per cent of control (ERBB3 (human)): 49%; kinase still bound, per cent of control (ACVR2B (human)): 17%; kinase still bound, per cent of control (EPHB6 (human)): 16%; kinase still bound, per cent of control (NUAK1 (human)): 100%; kinase still bound, per cent of control (PRKG1 (human)): 100%; kinase still bound, per cent of control (MAPK4 (human)): 90%; kinase still bound, per cent of control (TEK (human)): 94%; kinase still bound, per cent of control (ROS1 (human)): 69%; kinase still bound, per cent of control (MAP3K4 (human)): 85%; kinase still bound, per cent of control (PIP5K1C (human)): 100%; kinase still bound, per cent of control (CLK4 (human)): 93%; kinase still bound, per cent of control (DAPK2 (human)): 88%; kinase still bound, per cent of control (TLK1 (human)): 82%; kinase still bound, per cent of control (PKN1 (human)): 98%; kinase still bound, per cent of control (DCLK3 (human)): 90%; kinase still bound, per cent of control (PRKG2 (human)): 100% |
| CCN(CCO)CCCOc1ccc2c(Nc3cc(CC(=O)Nc4cccc(F)c4)[nH]n3)ncnc2c1 | 100 | 100 | 63 | 62 | 67 | 100 | 100 | 74 | 77 | 0.4 | 100 | 76 | 70 | 92 | 86 | 76 | 35 | 18 | 32 | 51 | kinase still bound, per cent of control (PRKACB (human)): 100%; kinase still bound, per cent of control (CSNK1A1L (human)): 99%; kinase still bound, per cent of control (ERBB3 (human)): 35%; kinase still bound, per cent of control (ACVR2B (human)): 100%; kinase still bound, per cent of control (EPHB6 (human)): 0.8%; kinase still bound, per cent of control (NUAK1 (human)): 60%; kinase still bound, per cent of control (ALK (human)): 98%; kinase still bound, per cent of control (MAPK4 (human)): 100%; kinase still bound, per cent of control (TEK (human)): 13%; kinase still bound, per cent of control (ROS1 (human)): 100%; kinase still bound, per cent of control (MAP3K4 (human)): 90%; kinase still bound, per cent of control (PIP5K1C (human)): 75%; kinase still bound, per cent of control (CLK4 (human)): 36%; kinase still bound, per cent of control (DAPK2 (human)): 89%; kinase still bound, per cent of control (TLK1 (human)): 60%; kinase still bound, per cent of control (PKN1 (human)): 90%; kinase still bound, per cent of control (DCLK3 (human)): 86%; kinase still bound, per cent of control (PRKG2 (human)): 92% |
